The values that follow come from patent publication US9926304B2, “1-(arylmethyl)quinazoline-2,4(1H,3H)-diones as PARP inhibitors and the use thereof” (Impact Therapeutics, Inc., priority 2011, dated 2018).

Assay [1] has as its system SW620 human colorectal cancer cells. As to the kind of experiment: MTT based cell viability assay: potentiation of the growth inhibiting activity of MMS.
A further assay concerns advanced breast cancer. Particulars: Phase II clinical trial; cited from earlier work.
Assay [2] has as its system Human breast cancer cell line T47D. As to the kind of experiment: Cell based caspase-3 activity assay: potentiation of MMS induced apoptosis. The settings on record: read-out: EC50 (nM), potentiation of the apoptosis inducing activity of MMS. An outline of the steps:
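T47D cells were exposed for 24 h to compound plus a minimally apoptotic MMS dose (medium containing 11.1 μg/ml MMS). Lysates were incubated 3 h at 37 °C with (Ac-DEVD)2-R110 caspase-3 substrate (20 μM in added buffer) and read at ex 496/em 520 nm. EC50 came from a sigmoidal fit of RFU versus log concentration.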

In assay [3] the test system is BRCA-2 deficient CAPAN-1 human pancreatic cancer cells. Briefly: MTT based cell viability assay: growth inhibition of BRCA-2 deficient CAPAN-1 cells. Particulars: 240 h, compound alone, 10 day assay.
The target of another assay is T1, PARP-1 enzyme (Homo sapiens, UniProt P09874).
T1 construct: purchased Trevigen, Inc. 4676-096-K
As to the kind of experiment: PARP-1 enzymatic activity assay (Trevigen 96-well kit 4676-096-K). It is filed as biochemical. The settings on record: 0.5 unit PARP-1, histone pre-coated plate, 60 min at room temperature; read-out: IC50 (nM), inhibitory effect on PARP-1 enzymatic activity. An excerpt: Measurement of the inhibitory effect of 1-(3-(4-(pyrimidin-2-yl)piperazine-1-carbonyl)benzyl)quinazoline-2,4(1H,3H)-dione and analogs on PARP-1 enzymatic activity
Briefly, PARP-1 catalyzes the NAD-dependent addition of poly(ADP-ribose) to its nuclear protein substrates such as histones. The assay kit measures the incorporation of biotynylated poly(ADP-ribose) onto histone proteins in a 96-well format.

Where [4] appears, read: Homo sapiens, SW-620, 120 h, read-out: IC50 (nM), potentiation of the growth inhibiting activity of MMS, SW620 cells, 1.7 μg/ml MMS, 5 days (120 hours), MTT.
Where [5] appears, read: Homo sapiens, T47D, 24 h, T47D cells, 11.1 μg/ml MMS, 24 hours, intracellular caspase-3 activity.
[6] abbreviates: read-out: IC50 (nM), potentiation of the growth inhibiting activity of MMS, SW620 cells, 1.7 μg/ml MMS, 5 days (120 hours), MTT.

By EC50 is commonly meant the concentration giving half of the maximal effect.

Molecules are shown by their SMILES. Where two headings read alike, the source gives them in different places.

T1 sequence (P09874 whole entry): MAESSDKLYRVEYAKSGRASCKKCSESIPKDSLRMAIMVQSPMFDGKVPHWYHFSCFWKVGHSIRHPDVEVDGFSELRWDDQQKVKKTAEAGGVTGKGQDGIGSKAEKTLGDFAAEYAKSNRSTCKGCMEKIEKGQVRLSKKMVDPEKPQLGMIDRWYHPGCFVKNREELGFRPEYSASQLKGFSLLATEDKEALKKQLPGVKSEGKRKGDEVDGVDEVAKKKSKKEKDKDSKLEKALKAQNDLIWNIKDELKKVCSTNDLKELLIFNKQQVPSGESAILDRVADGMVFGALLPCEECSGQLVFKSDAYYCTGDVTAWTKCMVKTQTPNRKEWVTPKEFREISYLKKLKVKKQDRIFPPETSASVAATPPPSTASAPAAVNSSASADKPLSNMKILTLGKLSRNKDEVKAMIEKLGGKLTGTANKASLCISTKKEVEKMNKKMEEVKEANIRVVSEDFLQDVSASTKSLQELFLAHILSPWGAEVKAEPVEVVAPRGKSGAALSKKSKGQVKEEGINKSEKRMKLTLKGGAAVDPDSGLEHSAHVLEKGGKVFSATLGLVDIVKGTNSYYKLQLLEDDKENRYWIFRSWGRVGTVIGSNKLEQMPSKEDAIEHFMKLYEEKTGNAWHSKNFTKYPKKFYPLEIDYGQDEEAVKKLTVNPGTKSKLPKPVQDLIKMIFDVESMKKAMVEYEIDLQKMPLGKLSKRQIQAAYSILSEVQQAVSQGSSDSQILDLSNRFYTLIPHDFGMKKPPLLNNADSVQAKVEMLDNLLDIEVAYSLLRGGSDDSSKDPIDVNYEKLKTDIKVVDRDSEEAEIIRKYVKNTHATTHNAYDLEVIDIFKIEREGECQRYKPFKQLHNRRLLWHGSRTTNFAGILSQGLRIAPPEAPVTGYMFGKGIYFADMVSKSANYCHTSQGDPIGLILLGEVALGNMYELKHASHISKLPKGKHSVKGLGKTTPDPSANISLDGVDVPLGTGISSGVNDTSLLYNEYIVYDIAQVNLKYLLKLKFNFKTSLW

`O=C(c1cc(Cc2n[nH]c(=O)c3ccccc23)ccc1F)N1CCN(C(=O)C2CC2)CC1` [AZD2281, olaparib, reference compound]: the IC50 in assay [1] (Homo sapiens, SW-620, 120 h, read-out: IC50 (nM), potentiation of the growth inhibiting activity of MMS) worked out at 28 nM. For the same compound, in the assay with advanced breast cancer, the “efficacy in treatment of advanced breast cancer” value was “effective”. Further, the EC50 in assay [2] (Homo sapiens, T47D, 24 h) is 24 nM.
With `O=C(c1cccc(Cn2c(=O)[nH]c(=O)c3ccccc32)c1)N1CCN(c2ccccn2)CC1` [Example 3, 1-(3-(4-(Pyridin-2-yl)piperazine-1-carbonyl)benzyl)quinazoline-2,4(1H,3H)-dione], the IC50 came to 90 nM in assay [1] (setting [4]), 445 nM in assay [3] and 4.2 nM at PARP-1 enzyme. Further, the EC50 in assay [2] (setting [5]) is 56 nM.
With `O=C(c1cccc(Cn2c(=O)[nH]c(=O)c3ccccc32)c1)N1CCN(c2ncccn2)CC1` [Example 4, 1-(3-(4-(Pyrimidin-2-yl)piperazine-1-carbonyl)benzyl)quinazoline-2,4(1H,3H)-dione], the IC50 in assay [1] (setting [6]) was found to be 12 nM; in assay [3], 55 nM; on PARP-1 enzyme it was 0.96 nM. Moreover, the EC50 in assay [2] (T47D cells, 11.1 μg/ml MMS, 24 hours, intracellular caspase-3 activity) was found to be 12 nM.
For `O=C(c1ccccc1)N1CCN(C(=O)c2cccc(Cn3c(=O)[nH]c(=O)c4ccccc43)c2)CC1` [Example 8, 1-(3-(4-Benzoylpiperazine-1-carbonyl)benzyl)quinazoline-2,4(1H,3H)-dione], the IC50 in assay [1] (setting [4]) came to 112 nM; in assay [3], 2360 nM; on PARP-1 enzyme, 5.3 nM. Also, the EC50 in assay [2] (setting [5]) turned out to be 120 nM.
For the compound `O=C(c1cccc(Cn2c(=O)[nH]c(=O)c3ccccc32)c1)N1CCN(C(=O)C2CCCC2)CC1` [Example 14, 1-(3-(4-(Cyclopentylcarbonyl)piperazine-1-carbonyl)benzyl)quinazoline-2,4(1H,3H)-dione], the figures for the IC50 (in assay [1] (setting [4]); on PARP-1 enzyme) were 102 nM and 2.3 nM, respectively. The EC50 in assay [2] (setting [5]) amounted to 39 nM.
Take `O=C(c1cc(Cn2c(=O)[nH]c(=O)c3ccccc32)ccc1F)N1CCN(c2ncccn2)CC1` [Example 25, 1-(4-Fluoro-3-(4-(pyrimidin-2-yl)piperazine-1-carbonyl)benzyl)quinazoline-2,4(1H,3H)-dione]: the figures for the IC50 (in assay [1] (setting [6]); in assay [3]; on PARP-1 enzyme) were 9.8 nM, 98 nM and 0.21 nM, respectively. Moreover, in assay [2] (setting [5]), the EC50 was determined as 3.9 nM.
On to `O=C(c1cc(Cn2c(=O)[nH]c(=O)c3ccccc32)ccc1F)N1CCN(C(=O)C2CCC2)CC1` [Example 44, 1-(3-(4-(Cyclobutylcarbonyl)piperazine-1-carbonyl)-4-fluorobenzyl)quinazoline-2,4(1H,3H)-dione], for which the IC50 in assay [1] (setting [4]) turned out to be 6.8 nM; in assay [3], 318 nM; on PARP-1 enzyme it was 0.88 nM. Moreover, the EC50 in assay [2] (setting [5]) is 5.7 nM.
For `O=C(c1cccc(Cn2c(=O)[nH]c(=O)c3c(F)cccc32)c1)N1CCN(c2ncccn2)CC1` [Example 127, 5-Fluoro-1-(3-(4-(pyrimidin-2-yl)piperazine-1-carbonyl)benzyl)quinazoline-2,4(1H,3H)-dione] the same measures were 13 nM, 44 nM, 0.37 nM and 4.1 nM.
In the same order, the values of `O=C(c1cc(Cn2c(=O)[nH]c(=O)c3c(F)cccc32)ccc1F)N1CCN(c2ncccn2)CC1` [Example 132, 5-Fluoro-1-(4-fluoro-3-(4-(pyrimidin-2-yl)piperazine-1-carbonyl)benzyl)quinazoline-2,4(1H,3H)-dione] are 4.1 nM, 17 nM, 1.19 nM and 0.93 nM.
`O=C(c1cc(Cn2c(=O)[nH]c(=O)c3c(F)cccc32)ccc1F)N1CCN(c2ccccn2)CC1` [Example 135, 5-Fluoro-1-(4-fluoro-3-(4-(pyridin-2-yl)piperazine-1-carbonyl)benzyl)quinazoline-2,4(1H,3H)-dione]: the figures for the IC50 (in assay [1] (setting [4]); at PARP-1 enzyme) were 6.8 nM and 1.74 nM, respectively. In addition, in assay [2] (setting [5]), the EC50 stood at 9.8 nM.
On to `O=C(c1cccc(Cn2c(=O)[nH]c(=O)c3cc(F)ccc32)c1)N1CCN(c2ncccn2)CC1` [Example 139, 6-Fluoro-1-(3-(4-(pyrimidin-2-yl)piperazine-1-carbonyl)benzyl)quinazoline-2,4(1H,3H)-dione], for which the IC50 in assay [1] (setting [4]) is 16 nM; in assay [3], 36 nM; at PARP-1 enzyme, 1.3 nM. Besides, the EC50 in assay [2] (setting [5]) turned out to be 4 nM.
For the compound `O=C(c1cc(Cn2c(=O)[nH]c(=O)c3cc(F)ccc32)ccc1F)N1CCN(c2ncccn2)CC1` [Example 144, 6-Fluoro-1-(4-fluoro-3-(4-(pyrimidin-2-yl)piperazine-1-carbonyl)benzyl)quinazoline-2,4(1H,3H)-dione], the values for the IC50 (in assay [1] (setting [4]); in assay [3]; on PARP-1 enzyme) were 2.8 nM, 78 nM and 1.15 nM, respectively. The EC50 in assay [2] (setting [5]) was found to be 3.4 nM.
Consider `O=C(c1cc(Cn2c(=O)[nH]c(=O)c3cc(F)ccc32)ccc1F)N1CCN(C(=O)C2CCCCC2)CC1` [Example 147, 1-(3-(4-(Cyclohexylcarbonyl)piperazine-1-carbonyl)-4-fluorobenzyl)-6-fluoroquinazoline-2,4(1H,3H)-dione], for which the IC50 was 2.7 nM in assay [1] (setting [4]), 47 nM in assay [3] and 1.2 nM on PARP-1 enzyme. The EC50 in assay [2] (setting [5]) was 3.4 nM.
Regarding `O=C(c1cc(Cn2c(=O)[nH]c(=O)c3c(F)cccc32)ccc1F)N1CCN(c2nccs2)CC1` [Example 189, 5-Fluoro-1-(4-fluoro-3-(4-(thiazol-2-yl)piperazine-1-carbonyl)benzyl)quinazoline-2,4(1H,3H)-dione], the IC50 in assay [1] (setting [4]) turned out to be 10 nM; in assay [3], 736 nM; on PARP-1 enzyme, 2.2 nM.
Regarding `O=C(c1cc(Cn2c(=O)[nH]c(=O)c3c(F)cccc32)ccc1F)N1CCN(C(=O)C2CCCO2)CC1` (stereo not shown) [Example 210, 5-Fluoro-1-(4-fluoro-3-(4-(tetrahydrofuran-2-carbonyl)piperazine-1-carbonyl)benzyl)quinazoline-2,4(1H,3H)-dione], the IC50 in assay [1] (setting [4]) came out at 10 nM; in assay [3], 3440 nM. The EC50 in assay [2] (setting [5]) was 15 nM.
In the same order, the values of `O=C(c1cc(Cn2c(=O)[nH]c(=O)c3c(F)cccc32)ccc1F)N1CCN(C2CCCCC2)CC1` [Example 212, 1-(3-(4-Cyclohexylpiperazine-1-carbonyl)-4-fluorobenzyl)-5-fluoroquinazoline-2,4(1H,3H)-dione] are 19 nM, over 10000 nM and 45 nM.
In the same order, the values of `O=C(c1cc(Cn2c(=O)[nH]c(=O)c3c(F)cccc32)ccc1F)N1CCN(CC2CCCCC2)CC1` [Example 217, 1-(3-(4-(Cyclohexylmethyl)piperazine-1-carbonyl)-4-fluorobenzyl)-5-fluoroquinazoline-2,4(1H,3H)-dione] are 2.5 nM, 460 nM and 19 nM.
